Experiments:
Format in all cases: in vivo
C57BL/6j ob/ob Mice [1] = assay: glucose lowering activity of halofenate analogs in C57BL/6J ob/ob mice (Example 14); conditions: 125 mg/kg oral gavage once a day
Experimental: Male, 8-9 weeks old, C57BL/6J ob/ob mice were purchased from The Jackson Laboratory (Bar Harbor, Me., USA). Animals were housed (4-5 mice/cage) under standard laboratory conditions at 22±3° C. temperature and 50±20% relative humidity, and were maintained on a diet of Purina rodent chow and water ad libitum. Prior to treatment, blood was collected from the tail vein of each animal. Mice that had non-fasting plasma glucose levels between 250 and 500 mg/dl were used. Each treatment group consisted of 8-10 mice that were distributed so that the mean glucose levels were equivalent in each group at the start of the study. Mice were dosed orally by gavage once a day for 1-3 days with either vehicle, (−) halofenic acid, (±) analog 14, 29, 33, 34, 35, 36, 37, or 38 at 125 mg/kg or (−) analog 29, 36, 37 or 38 at 150 mg/kg. compounds were delivered in a liquid formulation containing 5% (v/v) dimethyl sulfoxide (DMSO), 1% (v/v) tween 80 and 0.9% (w/v) methylcellulose. The gavage volume was 10 ml/kg. Blood samples were taken at 6 hours after the each dose and analyzed for plasma glucose. Food intake and body weight were measured daily. Plasma glucose concentrations were determined calorimetrically using glucose oxidase method (Sigma Chemical Co, St. Louis, Mo., USA). Significant difference between groups (comparing drug-treated to vehicle-treated) was evaluated using the Student unpaired t-test.

C57BL/6j ob/ob Mice [2] = assay: anti-diabetic activities in the C57BL/6j ob/ob Mice model (Example 20); conditions: for Insulin Level compared with vehicle: ob/ob mice, oral gavage; for minimal effective dose: Mus musculus, oral gavage once a day for 1-4 days, plasma glucose 6 hours after dose, read-out: Potency (glucose lowering)
Experimental: (§1) The anti-diabetic activities of the compounds were evaluated in the C57BL/6j ob/ob Mice model.
(§2) Male, 7-9 weeks old, C57BL/6J ob/ob mice were purchased from The Jackson Laboratory (Bar Harbor, Me., USA). Animals were housed (4-5 mice/cage) under standard laboratory conditions at 22±3° C. temperature and 50±20% relative humidity, and were maintained on a diet of Purina rodent chow and water ad libitum. Prior to treatment, blood was collected from the tail vein of each animal. Mice that had non-fasting plasma glucose levels between 250 and 500 mg/dl were used. Each treatment group consisted of 8-10 mice that were distributed so that the mean glucose levels were equivalent in each group at the start of the study. Mice were dosed orally by gavage once a day for 1-4 days with vehicle and one or more dose of test compound at a dose ranging from 5 to 125 mg/kg. compounds were delivered in a liquid formulation containing 5% (v/v) dimethyl sulfoxide (DMSO), 1% (v/v) Tween 80® and 0.9% (w/v) methylcellulose. The gavage volume was 10 ml/kg. Blood samples were taken at 6 hours after the each dose and analyzed for plasma glucose. Food intake and body weight were measured daily. Plasma glucose concentrations were determined colorimetrically using a commercial glucose oxidase method (Sigma Chemical Co, St. Louis, Mo., USA). Significant difference between groups (comparing drug-treated to vehicle-treated) was evaluated using the Student unpaired t-test.

C57BL/6j ob/ob Mice [3] = assay: anti-diabetic activities in the C57BL/6j ob/ob Mice model (Example 13); conditions: for Insulin Level compared with vehicle: ob/ob mice, oral gavage; for Potency (glucose lowering): oral gavage once a day for 1-4 days, 5 to 125 mg/kg, plasma glucose 6 hours after dose
Experimental: as §1
as §2, with “80 (and” for “80® and”, “Blood samples were taken at 6 hours after the each dose and analyzed for plasma glucose.” left out, “Plasma glucose concentrations were determined colorimetrically using a commercial glucose oxidase method (Sigma Chemical Co, St.” left out, “t-test. […]” for “t-test.”

Structure (SMILES) | plasma glucose concentrations vs vehicle (in words) (C57BL/6j ob/ob Mice [1]) | Insulin Level compared with vehicle (C57BL/6j ob/ob Mice [2]) | Insulin Level compared with vehicle (C57BL/6j ob/ob Mice [3]) | Potency (glucose lowering) (C57BL/6j ob/ob Mice [3]) | minimal effective dose (C57BL/6j ob/ob Mice [2]) [mg/kg]
CC(=O)NCCOC(=O)C(Oc1cccc(C(F)(F)F)c1)c1ccc(F)cc1 (racemic) [(±)Analog 14] | significantly lowered plasma glucose concentrations at 6, 30 and 54 hours |  |  |  | 
CC(=O)NCCOC(=O)C(Oc1cccc(C(F)(F)F)c1)c1ccc(Br)cc1 (racemic) [(±)Analog 29] | significantly lowered plasma glucose concentrations at 6, 30 and 54 hours |  |  |  | 
CCCCOC(=O)C(Oc1cccc(C(F)(F)F)c1)c1ccc(Cl)cc1 (racemic) [(±)Analog 33] | significantly lowered plasma glucose concentrations at 6 and 54 hours |  |  |  | 
CN(C)CCOC(=O)C(Oc1cccc(C(F)(F)F)c1)c1ccc(Cl)cc1 (racemic) [(±)Analog 35] | significantly lowered plasma glucose concentrations at 30 and 54 hours |  |  |  | 
O=C(O)C(Oc1ccc(C(F)(F)F)cc1)c1cccc(C(F)(F)F)c1 (racemic) [Compound 39, (4-trifluoromethyl-phenoxy)-(3-trifluoromethyl-phenyl)acetic acid] |  | Lower |  |  | 
O=C(O)C(Oc1ccccc1-c1nc2ccccc2o1)c1ccc(Cl)cc1 (racemic) [Compound I-1] |  |  | Lower | ++ (effective for glucose lowering at a dose of >25 mg/kg but <125 mg/kg) | 
O=C(O)C(Oc1ccccc1-c1nc2ccccc2o1)c1cccc(C(F)(F)F)c1 (racemic) [Compound I-3] |  |  | Lower | + (effective for glucose lowering at the dose of ≧125 mg/kg) | 
O=C(O)C(Oc1ccc(C(F)(F)F)cc1-c1nc2ccccc2o1)c1cccc(C(F)(F)F)c1 (racemic) [Compound I-89] |  |  | Lower | +++ (effective for glucose lowering at a dose of ≦25 mg/kg) | 
O=C(O)C(Oc1ccc(C(F)(F)F)cc1-c1nc2ccccc2o1)c1ccccc1 (racemic) [Compound I-92] |  |  | Lower | +++ (effective for glucose lowering at a dose of ≦25 mg/kg) | 
O=C(O)C(Oc1ccc(Cl)cc1-c1nc2ccccc2o1)c1ccc(Cl)cc1 (racemic) [Compound I-190] |  |  | Lower | +++ (effective for glucose lowering at a dose of ≦25 mg/kg) | 
O=C(O)C(Oc1ccc(Cl)cc1-c1nc2ccccc2o1)c1cccc(C(F)(F)F)c1 (racemic) [Compound I-191] |  |  | Lower | +++ (effective for glucose lowering at a dose of ≦25 mg/kg) | 
COc1ccc(C(Oc2ccc(Cl)cc2-c2nc3ccccc3o2)C(=O)O)cc1 (racemic) [Compound I-193] |  |  | Lower | +++ (effective for glucose lowering at a dose of ≦25 mg/kg) | 
O=C(O)C(Oc1ccc(Cl)cc1-c1nc2ccccc2o1)c1cccc(Cl)c1 (racemic) [Compound I-194] |  |  | Lower | +++ (effective for glucose lowering at a dose of ≦25 mg/kg) | 
O=C(O)C(Oc1ccc(C(F)(F)F)cc1-c1nc2ccccc2o1)c1ccc(Cl)cc1 (single isomer, unassigned) [Compound I-372] |  |  | Lower | +++ (effective for glucose lowering at a dose of ≦25 mg/kg) | 
O=C(O)C(Oc1ccc(C(F)(F)F)cc1)c1cccc(C(F)(F)F)c1 (single isomer, unassigned; (-)) [(−)-39, (4-trifluoromethyl-phenoxy)-(3-trifluoromethyl-phenyl)acetic acid] |  | Lower |  |  | ≤ 125
O=C(O)C(Oc1cc(C(F)(F)F)cc(C(F)(F)F)c1)c1ccc(C(F)(F)F)cc1 (centres unmarked) [Compound 81] |  | Lower |  |  | ≤ 125
O=C(O)C(Oc1ccc(C(F)(F)F)cc1)c1ccc(C(F)(F)F)cc1 (centres unmarked) [Compound 83] |  | Lower |  |  | ≤ 125

Structure (SMILES) | plasma glucose concentrations vs vehicle (in words) (C57BL/6j ob/ob Mice [1]) | Insulin Level compared with vehicle (C57BL/6j ob/ob Mice [2]) | Insulin Level compared with vehicle (C57BL/6j ob/ob Mice [3]) | Potency (glucose lowering) (C57BL/6j ob/ob Mice [3]) | minimal effective dose (C57BL/6j ob/ob Mice [2]) [mg/kg]
O=C(O)C(Oc1ccc(C(F)(F)F)cc1Cl)c1cccc(C(F)(F)F)c1 (centres unmarked) [Compound 85] |  | Lower |  |  | ≤ 125
O=C(O)C(Oc1cccc(C(F)(F)F)c1)c1ccc(C(F)(F)F)cc1 (centres unmarked) [Compound 86] |  | Lower |  |  | ≤ 125
O=C(O)C(Oc1ccc(C(F)(F)F)cc1Cl)c1ccc(C(F)(F)F)cc1 (centres unmarked) [Compound 89] |  | Lower |  |  | ≤ 125
O=C(O)C(Oc1ccc(C(F)(F)F)cn1)c1cccc(C(F)(F)F)c1 (centres unmarked) [Compound 100, (3-Trifluoromethyl-phenyl)-(5-trifluoromethyl-pyridin-2-yloxy)-acetic acid] |  | Lower |  |  | ≤ 125
CC(Oc1ccc(C(F)(F)F)cc1)(C(=O)O)c1cccc(C(F)(F)F)c1 (centres unmarked) [Compound 120, 2-(4-trifluoromethyl-phenoxy)-2-(3-trifluoromethyl-phenyl)propionic acid] |  | Lower |  |  | ≤ 125
CC(Oc1ccc(C(F)(F)F)cc1)(C(=O)O)c1ccc(C(F)(F)F)cc1 (centres unmarked) [Compound 121, 2-(4-Trifluoromethyl-phenoxy)-2-(4-trifluoromethyl-phenyl)-propionic acid] |  | Lower |  |  | ≤ 125
OCC(Oc1ccc(C(F)(F)F)cc1)c1ccc(C(F)(F)F)cc1 (centres unmarked) [Compound 128] |  | Lower |  |  | ≤ 125
CC(=O)NCCOC(=O)C(Oc1ccc(C(F)(F)F)cc1)c1cccc(C(F)(F)F)c1 (centres unmarked) [Compound 136, (4-trifluoromethyl-phenoxy)-(3-trifluoromethyl-phenyl)-acetic acid 2-acetylamino-ethyl ester] |  | Lower |  |  | ≤ 125
CC(=O)NCCOC(=O)C(Oc1cccc(C(F)(F)F)c1)c1ccc(C(F)(F)F)cc1 (centres unmarked) [Compound 142] |  | Lower |  |  | ≤ 125
CC(=O)NCCOC(=O)C(Oc1cc(C(F)(F)F)cc(C(F)(F)F)c1)c1ccc(C(F)(F)F)cc1 (centres unmarked) [Compound 143] |  | Lower |  |  | ≤ 125
CC(=O)NCCOC(=O)C(Oc1cccc(C(F)(F)F)c1)c1cccc(C(F)(F)F)c1 (centres unmarked) [Compound 144] |  | Lower |  |  | ≤ 125
CC(=O)NCCOC(=O)C(Oc1ccc(C(F)(F)F)cc1)c1ccc(C(F)(F)F)cc1 (centres unmarked) [Compound 145] |  | Lower |  |  | ≤ 125
CC(=O)NCCOC(=O)C(Oc1ccccc1C(F)(F)F)c1ccc(C(F)(F)F)cc1 (centres unmarked) [Compound 146] |  | Lower |  |  | > 125
CC(=O)NCCOC(=O)C(Oc1cccc(C(F)(F)F)c1)c1ccccc1C(F)(F)F (centres unmarked) [Compound 147] |  | Lower |  |  | > 125
O=C(O)C(Oc1ccc(C(F)(F)F)cc1-c1nc2ccccc2o1)c1ccccc1 (centres unmarked) [Compound I-369] |  |  | Lower | +++ (effective for glucose lowering at a dose of ≦25 mg/kg) | 
CC(Oc1ccc(C(F)(F)F)cc1-c1nc2ccccc2o1)(C(=O)O)c1ccccc1 (centres unmarked) [Ia-365] |  |  | Lower | +++ (effective for glucose lowering at a dose of ≦25 mg/kg) | 
CC(Oc1ccc(C(F)(F)F)cc1-c1nc2ccccc2o1)(C(=O)O)c1ccccc1 (centres unmarked) [Ia-366] |  |  | Lower |  | 
